According to BindingDB's records for patent US8969325 (Abbvie, 2015):

Target: Transient receptor potential cation channel subfamily V member 1 (Homo sapiens, UniProt Q8NER1)
Experiment: Activation Assay
Experimental: Expression plasmids encoding the hTRPV1 cDNA were transfected into HEK293 cells using Lipofectamine. Forty-eight hours after transfection, the neomycin-resistant cells were selected with growth medium containing 800 ug/mL Geneticin (Life Technologies, formerly Gibco BRL). Surviving individual colonies were isolated and screened for TRPV1 activity.

Sequence of Transient receptor potential cation channel subfamily V member 1 (Q8NER1 whole entry): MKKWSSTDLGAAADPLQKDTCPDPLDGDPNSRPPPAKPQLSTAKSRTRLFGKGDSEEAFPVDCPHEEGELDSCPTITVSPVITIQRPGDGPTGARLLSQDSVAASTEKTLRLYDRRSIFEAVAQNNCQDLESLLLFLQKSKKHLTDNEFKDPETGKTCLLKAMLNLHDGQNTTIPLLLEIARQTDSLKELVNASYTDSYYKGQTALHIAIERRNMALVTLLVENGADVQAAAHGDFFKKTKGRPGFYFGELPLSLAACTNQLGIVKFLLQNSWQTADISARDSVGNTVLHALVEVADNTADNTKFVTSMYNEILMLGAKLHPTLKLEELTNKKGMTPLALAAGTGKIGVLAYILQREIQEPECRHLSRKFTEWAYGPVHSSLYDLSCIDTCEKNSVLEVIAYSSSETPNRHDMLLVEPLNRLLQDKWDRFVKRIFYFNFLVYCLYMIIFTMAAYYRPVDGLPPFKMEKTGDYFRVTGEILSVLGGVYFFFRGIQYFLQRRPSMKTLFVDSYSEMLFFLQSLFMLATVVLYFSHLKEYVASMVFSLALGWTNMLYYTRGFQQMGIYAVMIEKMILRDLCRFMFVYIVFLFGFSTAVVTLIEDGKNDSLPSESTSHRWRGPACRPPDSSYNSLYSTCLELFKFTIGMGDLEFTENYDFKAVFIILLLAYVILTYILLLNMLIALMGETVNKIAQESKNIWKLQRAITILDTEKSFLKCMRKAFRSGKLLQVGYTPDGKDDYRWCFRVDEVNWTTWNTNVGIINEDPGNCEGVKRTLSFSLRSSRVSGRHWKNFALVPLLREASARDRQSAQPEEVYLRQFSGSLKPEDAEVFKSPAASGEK

## CN1C(=O)NCc2c(NC(=O)N[C@@H]3CC(C)(C(F)F)Oc4cc(Cl)ccc43)cccc21 (stereo partly specified) [US8969325, 136]
  IC50: 21 nM
